The values below come from patent US10149907B2, “Combinations of a photosensitizer with a hydrogen sulfide donor, thioredoxin inhibitor or nitroxide for use in photodynamic therapy” (UNIVERSITY OF EXETER, priority 2014, dated 2018).

Several values for one entry are separate records, joined by “and”; a condition that tells them apart may be missing. Equal values may be shown once. Entries after “also recorded” stand apart in the source; their conditions may differ. Read-outs that look alike come from different tables or passages of the source.

Series [1] has as its system A431 cells. Description: Mitochondrial reactive oxygen species generation during photodynamic irradiation, MitoSOX flow cytometry. The note with it: 3 hours, irradiated. The class given is cell-based, human. The procedure:
A431 cells were treated concurrently with AP39-C10 (10, 100 or 1000 nM) for 5 hours, MAL (1 mM) for 3 hours and MitoSOX (2.5 μM) for 1 hour, after which they were irradiated for 5 min (630 nm, 25 J/cm^2) and MitoSOX (mito-2-OH-E^+) fluorescence, indicative of mitochondrial oxidant production, was immediately analysed by flow cytometry. Results are set out in FIG. 23.
Mitochondria-targeted dihydroethidium (i.e. MitoSOX) was used to assess the production of mitochondrial reactive oxygen species (ROS) by PpIX photochemical reactions and to determine the effects of AP39-C10 on this process. All of the results are represented as a percentage of the untreated controls (100.0±8.5%). The fluorescence of the photoirradiated cells, which had been pre-treated with MAL, was 193.7±7.3% (p<0.001 c.f. untreated controls).
In general terms: In flow cytometry, cells or beads pass a laser one at a time.

In series [2] the test system is A431 cells. Description: Photodynamic cell killing in the presence of inhibitors of the thioredoxin antioxidant system or nitroxides (annexin V-FITC/propidium iodide flow cytometry). The conditions noted are these: for cell death: 3 h, irradiation; for potentiating effect on MAL photodynamic cell killing: summary of Examples 2A, 3A. The class given is cell-based, human. Here is the method:
After this treatment, the cells were irradiated for 5 min (630 nm, 25 J/cm^2), then washed with PBS and the culture medium was replaced, after which the cells were placed back under 2% O2 and incubated for a further 3 h. Following this final incubation, cell death was analysed by annexin V-FITC and propidium iodide staining in conjunction with flow cytometry.
Cell death analysis by flow cytometry was carried out using the annexin V-FITC/propidium iodide protocol. This protocol allows a quantitative assessment of cell death, particularly specific modes of death, and involves staining the cells with fluorescein isothiocyanate-conjugated annexin A5 (annexin V-FITC) and propidium iodide (PI). Positive staining with annexin V-FITC alone indicates an apoptotic cell; positive staining with PI alone indicates a necrotic cell and dual staining of both annexin V and PI indicates a “late apoptotic” cell.
From each flask being assessed, the old medium was removed and placed into a corresponding individual 15 ml Falcon tube in order to collect any cells that may have detached from the surface. The flask was washed once with 1 ml PBS; also deposited in the Falcon tubes. Trypsin (500 μl) was added to each flask and the flasks were returned to the incubator with their caps loosened. Cell detachment was monitored using an inverted light microscope, until 50% of the cells were detached. The flasks were then lightly tapped to detach the remainder of the cells. Medium (2 ml) was added to each flask in order to neutralise the trypsin present before being removed and dispensed into the Falcon tubes. One more wash with PBS was carried out in order to ensure any cells left in the flasks were collected. The Falcon tubes were then centrifuged at 490 g for 3 min, forming a pellet at the bottom of the tube. The supernatant was discarded, and the cells were re-suspended in 5 ml of PBS, in order to wash them, before being centrifuged again at 490 g for 3 min. The wash stage was carried out once more before re-suspending the cell pellet in 95 μl of ice cold calcium (Ca^2+) buffer (50 mM HEPES, 700 mM NaCl, 12.5 mM CaCl2, pH 7.4) and adding 5 μl 12.5 μg/ml of annexin V-FITC (final concentration, 1.25 μg/ml), under reduced light conditions to prevent bleaching of the FITC. The Falcon tubes were placed on ice and in the dark for 15 min to allow annexin V staining. After 15 min, 860 μl of Ca^2+ buffer (10 mM Hepes adjusted to pH 7.4, 140 mM NaCl and 2.5 mM CaCl2) was added, followed by 40 μl of 1 mg/ml PI in water (final concentration, 0.04 mg/ml) to give a final volume of 1 ml. The samples were then ready to be assessed by flow cytometry.
The following flow cytometry process of sample detection was used. When using annexin V-FITC and PI, the detectors being used were FL1 (λmax=520 nm) and FL3 (λmax=670 nm), respectively, each with their own logarithmic histogram generated by the software. The intensity of the fluorescence detected is measured on a logarithmic scale on the x-axis and the y-axis represents the number of cells detected at a given fluorescence intensity. A plot of FL1/FL3 produces a 4-quadrant graph, where unstained and untreated cells are located in the bottom left quadrant, representing any cells found in the 1st decade of the single plot logarithmic histograms. Single staining with annexin V-FITC and PI are located in the bottom right and top left quadrant, respectively, and dual staining is located in the top right quadrant. These quadrants represent any cells detected above the 1st decade of the logarithmic histograms.

Series [3] relates to A431 cells. Description: MAL-induced PpIX accumulation, fluorescence plate reader. The format is cell-based, human. The conditions noted are these: for PpIX accumulation, percentage of the MAL alone treatment: FIG. 38; for effect on PpIX fluorescence: 0.01 mM + 1 mM MAL; for increase in PpIX fluorescence: 1 mM + 1 mM MAL.
In series [4] the test system is A431 cells. Here is the method: A431 cells were seeded at a density of 1×10^5 cells/ml in 96 well plates and incubated under 2% O2 for 48 h prior to treatment. After 24 h, the culture medium was replaced and the cells were placed back into the incubators under 2% O2. Following this incubation period, the culture medium was then removed and the plates were washed with PBS. The cells were then treated with 1 mM MAL in the absence or presence of one of the compounds of interest and then incubated again at 2% O2 for 3 h. For experiments carried out with SRHDs, this treatment step was carried out for 5 h at 2% O2. After treatment, the cells were washed with PBS, the culture medium was replaced and the cells were placed back under 2% O2 for 3 h. Following this final incubation, cell death was analysed using the resazurin viability assay.
Resazurin (7-hydroxy-3H-phenoxazin-3-one 0-oxide) is a weakly fluorescent blue dye used primarily in oxidation-reduction cell viability assays. Irreversible NADH-dependent reduction by the mitochondria in mammalian cells leads to the production of resorufin, a highly fluorescent product with excitation at 571 nm, emission at 585 nm.
A431 cells were seeded into 96 well plates at a density of 1.5*10^6 cells per ml (200 μl per well, 3*10^5 cells) and incubated for 24 h to adhere. Following incubation, the cells were washed and treated with the compound of interest for the relevant time, and then washed with PBS. […] After a 2 h incubation, the fluorescence of each well was measured (excitation: 571 nm, emission: 585 nm) using a fluorescence plate reader. Data from these experiments was plotted as a percentage of cell viability compared to untreated control cells.

[5] abbreviates: MAL 1 mM + co-treatment 1 mM (1000 μM).
Setting [6] is: 1 mM MAL + co-treatment 1 mM (1000 μM).
The mark [7] stands for this setting: 1 mM MAL + nitroxide 1 mM (MitoTEMPO 50 μM) + irradiation, FIG. 13, 34.

Take `CC1(C)CCCC(C)(C)N1[O]` [TEMPO, 2,2,6,6-tetramethyl-1-piperidinyloxy]: the “MitoSOX fluorescence, percentage of untreated cells” value (“MitoSOX fluorescence, percentage” below) in the series on A431 cells [1] (setting [5]) amounted to 418.8±6.3%. For the same molecule, the cell death in the series on A431 cells [2] (setting [6]) is 52.0±8.3% and 46.3±3.6%. Moreover, in the series on A431 cells [2] (setting [7]), the “modes of cell death” value was “an increase in apoptotic and late apoptotic cell death; also recorded: a further increase in late apoptosis and necrosis with little effect on apoptotic cell death”. Also, the “potentiating effect on MAL photodynamic cell killing” value (from here on “potentiating effect”) in the series on A431 cells [2] is on record as “more robust potentiating effect”. Moreover, the “PpIX accumulation, percentage of the MAL alone treatment” value (from here on “PpIX accumulation, percentage”) worked out at 100.3±3.8% in the series on A431 cells [3] (10 μM + MAL 1 mM, 3 hours); 127.0±3.3% with A431 cells [3] (100 μM + MAL 1 mM, 3 hours); 159.2±4.1% in the series on A431 cells [3] (1000 μM + MAL 1 mM, 3 hours). Moreover, the “effect on PpIX fluorescence” value in the series on A431 cells [3] (3 h) is “increased PpIX fluorescence slightly, but this was not statistically significant”. Besides, the “increase in PpIX accumulation compared to MAL alone” value in the series with A431 cells [3] (50 μM + MAL 1 mM, 3 hours, FIG. 35) is listed as 0.0±4.9%. Further, in the series on A431 cells [3] (3 h), the “increase in PpIX fluorescence” value was around 2 fold. The “peak response, increase in PpIX accumulation compared to MAL alone” value in the series on A431 cells [3] (peak at TEMPO 5 mM, MitoTEMPO 100 μM, CP94 100 μM, MAL 1 mM, 3 hours) is listed as 138.1±10.5%. For the same molecule, the “cell viability, percentage of untreated control” value (“cell viability, percentage” below) in the series with A431 cells [4] (0.25 mM with 1 mM MAL, 3 hours) was 97.8±3.4%; in the series with A431 cells [4] (0.5 mM with 1 mM MAL, 3 hours) it was 97.5±1.7%; in the series with A431 cells [4] (1 mM with 1 mM MAL, 3 hours), 98.6±6.8%; with A431 cells [4] (2 mM with 1 mM MAL, 3 hours) it was 97.4±6.2%; with A431 cells [4] (5 mM with 1 mM MAL, 3 hours), 92.9±6.6%; in the series with A431 cells [4] (10 mM with 1 mM MAL, 3 hours), 79.9±8.5%. Moreover, the “cell viability, percentage” value is on record as 64.9±0.1% in the series on A431 cells [4] (10 mM, 24 hours) and 8.5±0.2% with A431 cells [4] (50 mM, 24 hours).
As for `CC1(C)CC(O)CC(C)(C)N1[O]` [TEMPOL, 4-hydroxy-2,2,6,6-tetra methylpiperidine 1-oxyl], the “MitoSOX fluorescence, percentage” value with A431 cells [1] (MAL 1 mM + co-treatment 10 μM) is 99.4±5.44%; in the series on A431 cells [1] (MAL 1 mM + co-treatment 100 μM), 226.5±19.4%; in the series on A431 cells [1] (setting [5]) it was 253.3±6.3% and 316.8±1.6%. Also, the “modes of cell death” value in the series with A431 cells [2] (1 mM MAL + TEMPOL, dependent on concentration + irradiation, FIG. 37) is “an increase in apoptosis and late apoptosis, with smaller increases in necrosis also observed”; with A431 cells [2] (setting [7]), “an increase in late apoptotic and necrotic cell death; also recorded: a further increase in late apoptosis and necrosis with little effect on apoptotic cell death”. The cell death in the series with A431 cells [2] (1 mM MAL + co-treatment 10 μM) is 40.5±4.1%; in the series with A431 cells [2] (1 mM MAL + co-treatment 100 μM) it was 48.5±7.4%; with A431 cells [2] (setting [6]), 50.8±6.8% and 69.3±3.1%. Besides, the “potentiating effect” value in the series with A431 cells [2] is on record as “more robust potentiating effect”. For the same molecule, the “PpIX accumulation, percentage” value with A431 cells [3] (10 μM + MAL 1 mM, 3 hours) stood at 109.0±2.7%; in the series on A431 cells [3] (100 μM + MAL 1 mM, 3 hours) it was 141.2±4.2%; in the series with A431 cells [3] (1000 μM + MAL 1 mM, 3 hours) it was 209.2±5.1%. For the same molecule, the “effect on PpIX fluorescence” value in the series with A431 cells [3] (3 h) is listed as “increased PpIX fluorescence slightly, but this was not statistically significant”. For the same molecule, in the series on A431 cells [3] (0.1 mM and 1 mM + 1 mM MAL, 3 h), the “effect on PpIX accumulation” value is “significantly increased PpIX accumulation further”. For the same molecule, the “increase in PpIX fluorescence” value in the series with A431 cells [3] (3 h) is reported as around 2 fold. The “cell viability, percentage” value was determined as 99.3±4.4% in the series on A431 cells [4] (0.25 mM with 1 mM MAL, 3 hours); 102.0±3.6% with A431 cells [4] (0.5 mM with 1 mM MAL, 3 hours); 99.8±2.9% in the series with A431 cells [4] (1 mM with 1 mM MAL, 3 hours); 104.2±3.3% in the series on A431 cells [4] (2 mM with 1 mM MAL, 3 hours); 116.2±2.7% in the series on A431 cells [4] (5 mM with 1 mM MAL, 3 hours); 77.8±4.7% with A431 cells [4] (10 mM with 1 mM MAL, 3 hours).
For `CC1(C)CC(=O)CC(C)(C)N1[O]` [TEMPONE], in the series with A431 cells [1] (setting [5]), the “MitoSOX fluorescence, percentage” value is 226.4±6.8%. For the same molecule, in the series on A431 cells [2] (setting [6]), the cell death was determined as 37.9±2.3%. Besides, the “modes of cell death” value in the series with A431 cells [2] (setting [7]) was “a further increase in late apoptosis and necrosis with little effect on apoptotic cell death”. In the series on A431 cells [2], the “potentiating effect” value is reported as “mild potentiating effect”. The “PpIX accumulation, percentage” value in the series with A431 cells [3] (10 μM + MAL 1 mM, 3 hours) was found to be 100.3±4.0%; in the series on A431 cells [3] (100 μM + MAL 1 mM, 3 hours) it was 123.8±2.5%; in the series with A431 cells [3] (1000 μM + MAL 1 mM, 3 hours) it was 160.2±3.2%. Also, the “cell viability, percentage” value stood at 80.3±13.3% in the series with A431 cells [4] (10 mM, 24 hours) and 53.7±13.3% in the series with A431 cells [4] (50 mM, 24 hours).
